Broadly, the IC50 is the midpoint of a concentration-inhibition curve. High values mean a need for much substance, low ones inhibition by little substance.

Experimental findings from patent US9221756B2, “Pyrrole derivatives” (priority 2011, dated 2015) are described below.

Structures are written as SMILES. Where only a bound is given, the exact number is not on record here.

A short description of series [1]: Conversion of prodrug derivatives to active inhibitors in mouse plasma. In kind it is in vitro ADME. Conditions: 37° C., 10 μM start, prodrug remaining; for [ ] (μM) t0 min. Prodrug: 0 min; for [ ] (μM) t15 min. Prodrug: 15 min; for [ ] (μM) t30 min. Prodrug: 30 min; for [ ] (μM) t60 min. Prodrug: 60 min; for [ ] (μM) t120 min. Prodrug: 120 min. The procedure: (§1) The samples were then analysed by LC-MS/MS to obtain the amount of active compound appearing and prodrug derivative remaining over time. The mouse plasma assay system is considered to be a good model for human behaviour. Nevertheless data obtained in a human plasma assay system was obtained in some cases.
(§2) Prodrug derivatives were assessed in the mouse and human plasma stability assay at a concentration of 10 μM. Test compounds were diluted in DMSO to a final stock concentration of 10 mM. For the purpose of the assay, the stocks prepared were further diluted in DMSO to a concentration of 400 μM and […] were added to 195 μl of mouse or human plasma (pH 7.4) and then incubated at 37° C. The final concentration of DMSO in the plate was 2.5% (v/v). Reactions were terminated at 0, 15, 30, 60 and 120 min after incubation by adding 400 μl of acetonitrile containing 0.55 μM metoprolol and 1% (v/v) formic acid. The plate was then centrifuged at 3000 rpm, for 45 min, at 4° C. 80 μl of supernatant were transferred into a conical bottom 96 well glass coated plate. 40 μl of water were added prior to analysis for prodrug derivative and active species by LC-MS/MS. This assay was performed by a contract research organisation, Cyprotex Discovery Limited, UK, at the request of the inventors at Leicester.
(§3) (1) The active compound was quantified using a 6 point calibration curve prepared in deactivated mouse and human plasma. (2) The percentage of parent compound remaining at each time point relative to 0 min sample was calculated from LC-MS/MS peak area ratios (compound peak area/internal standard peak area). This percentage was then used to determine the concentration of the parent compound at each time point in reference to the starting concentration (10 μM) at time 0 min.

The next series deals with pneumolysin (Streptococcus pneumoniae serotype 2, UniProt Q04IN8). In words: Inhibition of the haemolytic activity of pneumolysin (sheep erythrocytes). In kind it is cell-based. Conditions: class symbols of Table 1.
Sequence of pneumolysin (Q04IN8 whole entry): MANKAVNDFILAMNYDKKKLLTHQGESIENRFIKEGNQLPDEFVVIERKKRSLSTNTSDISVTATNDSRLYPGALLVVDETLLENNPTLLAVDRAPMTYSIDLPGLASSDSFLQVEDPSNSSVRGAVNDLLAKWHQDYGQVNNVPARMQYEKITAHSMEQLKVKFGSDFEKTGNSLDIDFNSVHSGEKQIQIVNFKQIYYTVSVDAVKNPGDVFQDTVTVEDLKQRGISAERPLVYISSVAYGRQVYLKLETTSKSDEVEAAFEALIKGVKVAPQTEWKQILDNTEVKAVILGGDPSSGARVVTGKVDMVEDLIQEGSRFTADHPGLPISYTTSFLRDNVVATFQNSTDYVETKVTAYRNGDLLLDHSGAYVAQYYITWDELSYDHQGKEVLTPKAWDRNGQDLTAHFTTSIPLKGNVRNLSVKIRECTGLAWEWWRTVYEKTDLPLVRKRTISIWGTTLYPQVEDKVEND
The format of series [2] is in vitro ADME. Conditions: human plasma; for [ ] (μM) t0 min. Prodrug (Human) / [ ] (μM) t15 min. Prodrug (Human) / [ ] (μM) t30 min. Prodrug (Human) / [ ] (μM) t60 min. Prodrug (Human) / [ ] (μM) t120 min. Prodrug (Human): 37° C., 10 μM start, prodrug remaining; for [ ] (μM) t15 min. Prodrug (Human): 15 min; for [ ] (μM) t30 min. Prodrug (Human): 30 min; for [ ] (μM) t60 min. Prodrug (Human): 60 min; for [ ] (μM) t120 min. Prodrug (Human): 120 min. Here is the method:
as §1, §2, §3

Where [3] appears, read: IC50, inhibition of pneumolysin-induced haemolysis of sheep erythrocytes.
Where [4] appears, read: inhibition of pneumolysin-induced haemolysis of sheep erythrocytes.

In the case of `CCOC(=O)c1c(OC(=O)C(C)(C)COCCOCCOP(=O)(O)O)c(OC(=O)C(C)(C)COCCOCCOP(=O)(O)O)c(C(=O)N(C)C)n1-c1ccc(OC)cc1` [UL1-117, 2-(dimethylcarbamoyl)-5-(ethoxycarbonyl)-1-(4-methoxyphenyl)-1H-pyrrole-3,4-diyl bis(2,2-dimethyl-3-(2-(2-(phosphonooxy)ethoxy)ethoxy)propanoate)], in series [1], the “[ ] (μM) t0 min. Prodrug” value is 10 µM, the “[ ] (μM) t15 min. Prodrug” value was 5.92 µM, the “[ ] (μM) t30 min. Prodrug” value came out at 4.26 µM and the “[ ] (μM) t60 min. Prodrug” value amounted to 1.41 µM. In addition, the “[ ] (μM) t120 min. Prodrug” value in series [1] amounted to 0.21 µM. Further, the concentration for half-maximal inhibition (IC50) at pneumolysin (setting [3]) lay within 10 to 20 µM. The “[ ] (μM) t0 min. Prodrug (Human)” value in series [2] (0 min) came to 10 µM. In series [2], the “[ ] (μM) t15 min. Prodrug (Human)” value came to 14.9 µM, the “[ ] (μM) t30 min. Prodrug (Human)” value was found to be 10.1 µM, the “[ ] (μM) t60 min. Prodrug (Human)” value was 4.28 µM and the “[ ] (μM) t120 min. Prodrug (Human)” value is 1.12 µM.

In the case of `CCOC(=O)c1c(O)c(OP(=O)(O)O)c(C(=O)N(C)C)n1-c1ccc(OC)cc1` [UL1-070, ethyl 5-(dimethylcarbamoyl)-3-hydroxy-1-(4-methoxyphenyl)-4-(phosphonooxy)-1H-pyrrole-2-carboxylate], in series [1], the “[ ] (μM) t0 min. Prodrug” value stood at 10 µM, the “[ ] (μM) t15 min. Prodrug” value came out at 6.40 µM, the “[ ] (μM) t30 min. Prodrug” value amounted to 4.73 µM and the “[ ] (μM) t60 min. Prodrug” value came out at 2.43 µM. In addition, the “[ ] (μM) t120 min. Prodrug” value in series [1] came to 0.93 µM. At pneumolysin (setting [3]), the IC50 lay within 20 to 60 µM. Moreover, the “[ ] (μM) t0 min. Prodrug (Human)” value in series [2] (0 min) worked out at 10 µM. Besides, in series [2], the “[ ] (μM) t15 min. Prodrug (Human)” value was determined as 8.02 µM, the “[ ] (μM) t30 min. Prodrug (Human)” value was 8.28 µM, the “[ ] (μM) t60 min. Prodrug (Human)” value amounted to 7.70 µM and the “[ ] (μM) t120 min. Prodrug (Human)” value came out at 7.48 µM.

As for `CCOC(=O)c1c(OC(=O)C(C)(C)COCCOCCOC)c(OC(=O)C(C)(C)COCCOCCOC)c(C(=O)N(C)C)n1-c1ccc(OC)cc1` [UL1-111, 2-(dimethylcarbamoyl)-5-(ethoxycarbonyl)-1-(4-methoxyphenyl)-1H-pyrrole-3,4-diyl bis(3-(2-(2-methoxyethoxy)ethoxy)-2,2-dimethylpropanoate)], in series [1], the “[ ] (μM) t0 min. Prodrug” value was 10 µM, the “[ ] (μM) t15 min. Prodrug” value came to 4.74 µM, the “[ ] (μM) t30 min. Prodrug” value came out at 2.47 µM and the “[ ] (μM) t60 min. Prodrug” value was 1.16 µM. Also, in series [1], the “[ ] (μM) t120 min. Prodrug” value was determined as 0.47 µM. Moreover, the IC50 against pneumolysin (setting [3]) was below 10 µM. Further, in series [2] (10 μM prodrug, active UL1-012 appearing, 0 min), the “[ ] (μM) t0 min. Active (Human) (UL1-012)” value was “<LOQ”. For the same compound, the “[ ] (μM) t0 min. Prodrug (Human)” value in series [2] (0 min) is 10 µM. In addition, in series [2], the “[ ] (μM) t15 min. Prodrug (Human)” value came out at 2.84 µM, the “[ ] (μM) t30 min. Prodrug (Human)” value amounted to 0.80 µM, the “[ ] (μM) t60 min. Prodrug (Human)” value was 0.09 µM and the “[ ] (μM) t120 min. Prodrug (Human)” value stood at 0.00 µM.

Regarding `CCOC(=O)c1c(OCOP(=O)(O)O)c(O)c(C(=O)N(C)C)n1-c1ccc(OC)cc1` [UL1-115, ethyl 5-(dimethylcarbamoyl)-4-hydroxy-1-(4-methoxyphenyl)-3-((phosphonooxy)methoxy)-1H-pyrrole-2-carboxylate], in series [1], the “[ ] (μM) t0 min. Prodrug” value was 10 µM, the “[ ] (μM) t15 min. Prodrug” value was 7.56 µM, the “[ ] (μM) t30 min. Prodrug” value turned out to be 4.04 µM and the “[ ] (μM) t60 min. Prodrug” value was 1.54 µM. Besides, the “[ ] (μM) t120 min. Prodrug” value in series [1] amounted to 0.38 µM. This compound showed a half-maximal inhibitory concentration (IC50) against pneumolysin (setting [3]) of 20 to 60 µM. Besides, the “[ ] (μM) t0 min. Prodrug (Human)” value in series [2] (0 min) stood at 10 µM. In addition, in series [2], the “[ ] (μM) t15 min. Prodrug (Human)” value was 10.8 µM, the “[ ] (μM) t30 min. Prodrug (Human)” value is 9.41 µM, the “[ ] (μM) t60 min. Prodrug (Human)” value was determined as 6.69 µM and the “[ ] (μM) t120 min. Prodrug (Human)” value was 2.98 µM.

In the case of `CCOC(=O)c1c(OC(=O)C(C)C)c(OC(=O)C(C)C)c(C(=O)N(C)C)n1-c1ccc(OCCOCCOCCOC)cc1` [UL1-098, 2-(dimethylcarbamoyl)-5-(ethoxycarbonyl)-1-(4-(2-(2-(2-methoxyethoxy)ethoxy)ethoxy)phenyl)-1H-pyrrole-3,4-diyl bis(2-methylpropanoate)], in series [1], the “[ ] (μM) t0 min. Prodrug” value turned out to be 10 µM, the “[ ] (μM) t15 min. Prodrug” value is 0 µM, the “[ ] (μM) t30 min. Prodrug” value is 0 µM and the “[ ] (μM) t60 min. Prodrug” value came to 0 µM. Moreover, the “[ ] (μM) t120 min. Prodrug” value in series [1] came out at 0 µM. At pneumolysin (setting [4]), this compound came in with an IC50 above 60 µM. In addition, the “[ ] (μM) t0 min. Prodrug (Human)” value in series [2] (0 min) came to 10 µM. For the same compound, in series [2], the “[ ] (μM) t15 min. Prodrug (Human)” value amounted to 5.42 µM, the “[ ] (μM) t30 min. Prodrug (Human)” value was found to be 3.45 µM, the “[ ] (μM) t60 min. Prodrug (Human)” value is 1.76 µM and the “[ ] (μM) t120 min. Prodrug (Human)” value amounted to 0.65 µM.

`CCOC(=O)c1c(O)c(OCOP(=O)(O)O)c(C(=O)N(C)C)n1-c1ccc(OC)cc1` [UL1-109, ethyl 5-(dimethylcarbamoyl)-3-hydroxy-1-(4-methoxyphenyl)-4-((phosphonooxy)methoxy)-1H-pyrrole-2-carboxylate]: in series [1], the “[ ] (μM) t0 min. Prodrug” value came to 10 µM, the “[ ] (μM) t15 min. Prodrug” value turned out to be 6.87 µM, the “[ ] (μM) t30 min. Prodrug” value turned out to be 4.84 µM and the “[ ] (μM) t60 min. Prodrug” value worked out at 2.45 µM. Besides, the “[ ] (μM) t120 min. Prodrug” value in series [1] was found to be 0.73 µM. This compound also yielded a 50% inhibitory concentration (IC50) against pneumolysin (setting [4]) above 60 µM. Moreover, the “[ ] (μM) t0 min. Prodrug (Human)” value in series [2] (0 min) amounted to 10 µM. In addition, in series [2], the “[ ] (μM) t15 min. Prodrug (Human)” value amounted to 6.22 µM, the “[ ] (μM) t30 min. Prodrug (Human)” value was determined as 5.37 µM, the “[ ] (μM) t60 min. Prodrug (Human)” value came out at 3.39 µM and the “[ ] (μM) t120 min. Prodrug (Human)” value came to 1.72 µM.

Consider `COc1ccc(-n2c(C(=O)N(C)C)c(OC(=O)C(C)C)c(OC(=O)C(C)C)c2C(=O)N(C)C)cc1` [UL1-114, 2,5-bis(dimethylcarbamoyl)-1-(4-methoxyphenyl)-1H-pyrrole-3,4-diyl bis(2-methylpropanoate)], for which, in series [1], the “[ ] (μM) t0 min. Prodrug” value is 10 µM, the “[ ] (μM) t15 min. Prodrug” value stood at 0 µM, the “[ ] (μM) t30 min. Prodrug” value is 0 µM and the “[ ] (μM) t60 min. Prodrug” value is 0 µM. Besides, in series [1], the “[ ] (μM) t120 min. Prodrug” value was determined as 0 µM. On pneumolysin (setting [3]), the IC50 fell in the range of 10 to 20 µM. Further, in series [2] (0 min), the “[ ] (μM) t0 min. Prodrug (Human)” value is 10 µM. In series [2], the “[ ] (μM) t15 min. Prodrug (Human)” value is 9.53 µM, the “[ ] (μM) t30 min. Prodrug (Human)” value is 9.48 µM, the “[ ] (μM) t60 min. Prodrug (Human)” value came out at 8.22 µM and the “[ ] (μM) t120 min. Prodrug (Human)” value was determined as 7.22 µM.
